Measurements as given in ChEMBL document CHEMBL5226338, “Molecular hybrids: A five-year survey on structures of multiple targeted hybrids of protein kinase inhibitors for cancer therapy” (Eur J Med Chem, 2021).
Each block holds one molecule with its values, some of them ahead of it.

Assays:
[1] = molecular target: T1, Epidermal growth factor receptor (Homo sapiens, UniProt P00533); experiment: Inhibition of EGFR (unknown origin)
[2] = molecular target: Tubulin (Bos taurus, UniProt Q6B856+Q862L2+Q862F3); experiment: Inhibition of bovine brain tubulin polymerization incubated for 20 mins by spectrophotometric method; assay type: tissue-based
[3] = molecular target: Cyclin-dependent kinase; experiment: Inhibition of CDK (unknown origin); assay type: protein assay, Homo sapiens
[4] = test system: U-937; experiment: Antiproliferative activity against human U-937 cells assessed as inhibition of cell growth incubated for 72 hrs by MTT assay; assay type: functional, cell-based; settings: U-937, 72 h
[5] = test system: SK-MEL-1; experiment: Antiproliferative activity against human SK-MEL-1 cells assessed as inhibition of cell growth incubated for 72 hrs by MTT assay; assay type: functional, cell-based; settings: SK-MEL-1, 72 h
[6] = molecular target: T1, Epidermal growth factor receptor; experiment: Inhibition of EGFR (unknown origin) using poly (Glu,Tyr) 4:1 as substrate incubated for 1 hr in presence of ATP by spectrophotometric analysis relative to sorafenib; settings: concentration not given here
[7] = molecular target: DNA topoisomerase 1 (Homo sapiens, UniProt P11387); experiment: Inhibition of human DNA topoisomerase 1 incubated for 2 hrs by ELISA
[8] = molecular target: T2, Vascular endothelial growth factor receptor 2 (Homo sapiens, UniProt P35968); experiment: Inhibition of VEGFR2 (unknown origin) using biotin-gastrin precursor (Tyr87) peptide as substrate incubated for 1 hr in presence of ATP by spectrophotometric analysis relative to sorafenib; settings: concentration not given here
[9] = molecular target: T2, Vascular endothelial growth factor receptor 2; experiment: Inhibition of human VEGFR2 using TMB as substrate by ELISA
[10] = molecular target: Tubulin beta (Homo sapiens) (UniProt P68371+Q9H4B7+Q13509+P04350+Q3ZCM7+P07437+Q13885+Q9BVA1+Q9BUF5+A6NNZ2); experiment: Inhibition of beta-tubulin polymerization in human HepG2 cells using TMB substrate by spectrophotometry analysis relative to control; assay type: cell-based; settings: concentration not given here
[11] = Cytotoxicity against human U87 cells; assay type: functional, cell-based, U-87MG ATCC; settings: U-87 MG
[12] = molecular target: Tubulin beta; experiment: Inhibition of beta-tubulin polymerization (unknown origin) by ELISA; assay type: protein assay, Homo sapiens
[13] = molecular target: Tubulin beta; experiment: Inhibition of beta-tubulin polymerization (unknown origin) measured every 3 secs for 1 hr by spectrofluorometer; assay type: protein assay, Homo sapiens
[14] = molecular target: T1, Epidermal growth factor receptor; experiment: Inhibition of EGFR (unknown origin) phosphorylation by ELISA
[15] = test system: DU-145; experiment: Antiproliferative activity against human DU-145 cells assessed as inhibition of cell growth incubated for 24 to 72 hrs by MTT assay; assay type: functional, cell-based
[16] = test system: BGC-823; experiment: Antiproliferative activity against human BGC-823 cells assessed as inhibition of cell growth incubated for 24 to 72 hrs by MTT assay; assay type: functional, cell-based
[17] = test system: T-24; experiment: Antiproliferative activity against human T24 cells assessed as inhibition of cell growth incubated for 24 to 72 hrs by MTT assay; assay type: functional, cell-based
[18] = test system: PANC-1; experiment: Antiproliferative activity against human PANC-1 cells assessed as inhibition of cell growth incubated for 24 to 72 hrs by MTT assay; assay type: functional, cell-based
[19] = molecular target: DNA topoisomerase 2-alpha (Homo sapiens, UniProt P11388); experiment: Inhibition of human topoisomerase 2 alpha assessed as relaxation of supercoiled plasmid pBR322 DNA incubated for 30 mins by ethidium bromide staining based agarose gel electrophoresis
[20] = Inhibition of tyrosine kinase in human PANC-1 cells; assay type: cell-based
[21] = test system: HGC-27; experiment: Antiproliferative activity against human HGC-27 cells assessed as inhibition of cell growth incubated for 24 to 72 hrs by MTT assay; assay type: functional, cell-based
[22] = Inhibition of tyrosine kinase in human CAPAN-1 cells; assay type: cell-based
[23] = test system: CAPAN-1; experiment: Antiproliferative activity against human CAPAN-1 cells assessed as inhibition of cell growth incubated for 24 to 72 hrs by MTT assay; assay type: functional, cell-based
[24] = molecular target: T1, Epidermal growth factor receptor; experiment: Inhibition of EGFR (unknown origin) by ELISA
[25] = molecular target: T2, Vascular endothelial growth factor receptor 2; experiment: Inhibition of VEGFR2 (unknown origin) by ELISA
[26] = molecular target: DNA topoisomerase 2-beta (Homo sapiens, UniProt Q02880); experiment: Inhibition of human DNA topoisomerase 2-beta
[27] = test system: A549; experiment: Antiproliferative activity against human A549 cells assessed as inhibition of cell growth incubated for 48 hrs by MTT assay; assay type: functional, cell-based; settings: A549, 48 h
[28] = molecular target: T1, Epidermal growth factor receptor; experiment: Inhibition of EGFR (unknown origin) phosphorylation using kit-tyr4 peptide as substrate incubated for 1 hr in presence of ATP by UV-Vis spectrophotometer
[29] = molecular target: Histone deacetylase 1 (Homo sapiens, UniProt Q13547); experiment: Inhibition of full length human recombinant HDAC1 using AcLys-Tyr-Lys(e-acetyl)-AMC as substrate incubated for 24 hrs
[30] = molecular target: Bcr/Abl fusion protein (Homo sapiens, UniProt P00519); experiment: Inhibition of BCR-Abl (unknown origin) incubated for 1 hr by ADP-glo assay; assay type: protein assay
[31] = test system: K562; experiment: Cytotoxicity against human K562 cells assessed as inhibition of cell growth; assay type: functional, cell-based
[32] = test system: K562; experiment: Cytotoxicity against imatinib-resistant human K562 cells assessed as inhibition of cell growth; assay type: functional, cell-based

T1 sequence (P00533 whole entry): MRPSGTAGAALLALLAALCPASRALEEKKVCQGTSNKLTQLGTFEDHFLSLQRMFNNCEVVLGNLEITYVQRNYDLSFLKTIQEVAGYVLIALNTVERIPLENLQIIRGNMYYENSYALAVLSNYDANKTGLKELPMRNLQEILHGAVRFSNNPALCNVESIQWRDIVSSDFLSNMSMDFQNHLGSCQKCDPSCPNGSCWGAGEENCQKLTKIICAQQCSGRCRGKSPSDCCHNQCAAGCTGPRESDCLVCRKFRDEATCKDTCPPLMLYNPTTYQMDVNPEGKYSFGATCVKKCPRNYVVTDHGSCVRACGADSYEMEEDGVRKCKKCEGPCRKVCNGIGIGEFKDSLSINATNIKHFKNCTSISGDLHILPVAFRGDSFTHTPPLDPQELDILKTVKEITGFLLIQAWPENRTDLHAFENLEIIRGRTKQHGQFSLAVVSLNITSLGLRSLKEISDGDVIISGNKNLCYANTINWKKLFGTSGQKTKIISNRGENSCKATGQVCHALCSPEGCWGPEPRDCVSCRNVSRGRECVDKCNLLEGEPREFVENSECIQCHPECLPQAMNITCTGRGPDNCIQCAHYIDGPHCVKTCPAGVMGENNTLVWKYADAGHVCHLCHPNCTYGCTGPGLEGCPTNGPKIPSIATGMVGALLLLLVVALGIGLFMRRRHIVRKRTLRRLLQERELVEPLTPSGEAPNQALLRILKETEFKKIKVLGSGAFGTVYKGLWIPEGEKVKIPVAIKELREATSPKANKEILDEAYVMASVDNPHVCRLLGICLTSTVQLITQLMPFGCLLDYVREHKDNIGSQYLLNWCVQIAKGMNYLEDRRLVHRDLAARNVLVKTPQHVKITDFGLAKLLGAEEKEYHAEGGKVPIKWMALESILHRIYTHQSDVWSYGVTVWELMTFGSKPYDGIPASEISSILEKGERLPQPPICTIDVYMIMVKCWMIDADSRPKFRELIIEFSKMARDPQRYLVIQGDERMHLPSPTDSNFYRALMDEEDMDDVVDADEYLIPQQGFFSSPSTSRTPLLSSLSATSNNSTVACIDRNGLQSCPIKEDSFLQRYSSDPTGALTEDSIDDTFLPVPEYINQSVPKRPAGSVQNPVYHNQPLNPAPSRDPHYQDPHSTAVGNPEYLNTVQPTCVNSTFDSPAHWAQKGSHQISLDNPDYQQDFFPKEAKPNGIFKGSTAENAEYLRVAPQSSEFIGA
T2 sequence (P35968 whole entry): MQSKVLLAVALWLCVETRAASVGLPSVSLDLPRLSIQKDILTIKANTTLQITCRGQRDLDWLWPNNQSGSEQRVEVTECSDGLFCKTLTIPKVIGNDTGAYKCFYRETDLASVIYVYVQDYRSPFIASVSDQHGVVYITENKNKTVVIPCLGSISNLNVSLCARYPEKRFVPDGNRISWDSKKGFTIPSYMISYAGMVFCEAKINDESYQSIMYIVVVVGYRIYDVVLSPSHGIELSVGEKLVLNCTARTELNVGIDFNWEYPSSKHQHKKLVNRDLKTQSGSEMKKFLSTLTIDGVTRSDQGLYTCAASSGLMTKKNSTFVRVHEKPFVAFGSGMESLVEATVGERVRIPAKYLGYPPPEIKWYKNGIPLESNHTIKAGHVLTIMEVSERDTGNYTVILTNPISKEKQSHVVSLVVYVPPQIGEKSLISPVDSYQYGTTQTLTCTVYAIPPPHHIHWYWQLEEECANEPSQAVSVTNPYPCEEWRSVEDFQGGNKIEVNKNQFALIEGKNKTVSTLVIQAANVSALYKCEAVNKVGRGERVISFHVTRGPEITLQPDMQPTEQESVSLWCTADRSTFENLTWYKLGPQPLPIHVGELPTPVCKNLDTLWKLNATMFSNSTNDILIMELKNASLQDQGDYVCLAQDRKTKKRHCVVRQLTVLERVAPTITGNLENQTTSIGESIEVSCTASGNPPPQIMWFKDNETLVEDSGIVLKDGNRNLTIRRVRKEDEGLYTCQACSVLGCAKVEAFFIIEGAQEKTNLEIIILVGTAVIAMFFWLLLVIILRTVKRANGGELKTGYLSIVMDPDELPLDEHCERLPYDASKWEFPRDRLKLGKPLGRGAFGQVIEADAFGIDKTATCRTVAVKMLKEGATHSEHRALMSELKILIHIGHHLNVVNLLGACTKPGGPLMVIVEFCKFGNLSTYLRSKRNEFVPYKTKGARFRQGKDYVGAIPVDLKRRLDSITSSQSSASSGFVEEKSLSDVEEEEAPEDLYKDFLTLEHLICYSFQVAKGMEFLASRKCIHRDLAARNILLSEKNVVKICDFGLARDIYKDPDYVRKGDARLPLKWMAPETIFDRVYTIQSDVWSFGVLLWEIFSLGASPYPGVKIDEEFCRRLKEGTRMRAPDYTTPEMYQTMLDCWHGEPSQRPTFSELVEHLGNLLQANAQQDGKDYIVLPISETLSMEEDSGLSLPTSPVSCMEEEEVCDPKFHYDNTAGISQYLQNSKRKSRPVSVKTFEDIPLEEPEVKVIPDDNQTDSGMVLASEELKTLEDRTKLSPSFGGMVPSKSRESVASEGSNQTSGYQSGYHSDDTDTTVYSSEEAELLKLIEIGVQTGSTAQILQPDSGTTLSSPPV
Chain of Histone deacetylase 1 (Q13547 whole entry, the tested form may be a part): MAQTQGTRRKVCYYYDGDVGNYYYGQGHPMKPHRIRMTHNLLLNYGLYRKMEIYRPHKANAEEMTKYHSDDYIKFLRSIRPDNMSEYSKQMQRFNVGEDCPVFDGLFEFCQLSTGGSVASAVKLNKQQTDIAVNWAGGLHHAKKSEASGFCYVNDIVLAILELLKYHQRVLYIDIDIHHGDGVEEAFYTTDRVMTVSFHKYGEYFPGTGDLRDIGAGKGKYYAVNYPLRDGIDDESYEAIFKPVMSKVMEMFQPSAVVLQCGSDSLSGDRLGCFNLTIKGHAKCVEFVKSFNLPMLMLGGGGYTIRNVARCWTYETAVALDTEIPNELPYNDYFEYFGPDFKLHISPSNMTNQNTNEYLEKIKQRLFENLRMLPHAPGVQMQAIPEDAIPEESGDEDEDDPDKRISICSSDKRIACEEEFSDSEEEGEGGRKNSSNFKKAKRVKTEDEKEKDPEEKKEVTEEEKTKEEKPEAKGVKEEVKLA
Chain of DNA topoisomerase 1 (P11387 whole entry): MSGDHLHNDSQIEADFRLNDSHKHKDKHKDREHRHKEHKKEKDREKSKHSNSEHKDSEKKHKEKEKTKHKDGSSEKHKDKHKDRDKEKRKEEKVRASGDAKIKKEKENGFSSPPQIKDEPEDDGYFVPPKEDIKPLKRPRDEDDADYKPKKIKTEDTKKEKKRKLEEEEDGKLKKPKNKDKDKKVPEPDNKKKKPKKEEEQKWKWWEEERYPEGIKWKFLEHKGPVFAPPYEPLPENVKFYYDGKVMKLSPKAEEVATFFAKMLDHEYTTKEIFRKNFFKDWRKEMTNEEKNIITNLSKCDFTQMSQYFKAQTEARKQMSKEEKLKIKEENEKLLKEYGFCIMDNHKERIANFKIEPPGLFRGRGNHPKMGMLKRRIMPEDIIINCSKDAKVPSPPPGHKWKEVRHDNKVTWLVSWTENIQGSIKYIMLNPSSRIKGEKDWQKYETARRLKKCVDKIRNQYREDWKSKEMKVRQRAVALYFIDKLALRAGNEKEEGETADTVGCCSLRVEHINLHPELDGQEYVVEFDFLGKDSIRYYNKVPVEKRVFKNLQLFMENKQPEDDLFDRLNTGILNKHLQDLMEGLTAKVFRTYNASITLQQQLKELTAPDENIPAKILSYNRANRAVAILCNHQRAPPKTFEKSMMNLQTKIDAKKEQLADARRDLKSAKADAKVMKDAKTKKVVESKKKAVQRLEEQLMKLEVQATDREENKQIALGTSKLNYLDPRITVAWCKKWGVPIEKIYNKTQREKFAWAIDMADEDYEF

IC50 [1]: 45 nM
Compound: Cc1cc(NC2=NC(=O)/C(=C/c3c4ccccc4cc4ccccc34)S2)no1

IC50 [2]: > 20000 nM
IC50 [3]: > 10000 nM
IC50 [4]: 5700 nM
IC50 [5]: 8000 nM
Compound: COc1ccc(CCNc2nc(N)c(C(=O)c3cc(OC)c(OC)c(OC)c3)s2)cc1

inhibition [6]: 30%
IC50 [7]: 278 nM
inhibition [8]: 60%
Compound: N#CC1=C(N)Oc2ccccc2C1c1cc2ccccc2n2nnnc12 (stereo not drawn)

IC50 [9]: 1290 nM
inhibition [10]: 86%
Compound: COc1ccc(NC(=O)c2c(Nc3ccccc3)sc(C(=O)N/N=C/c3ccc(O)c(O)c3)c2NC(C)=O)cc1

Compound: C=C[C@]1(C)CC[C@@H](C(=C)COC(=O)CNC(=O)CCC(=O)OCCCCOc2no[n+]([O-])c2S(=O)(=O)c2ccccc2)C[C@H]1C(=C)C
IC50 [11]: 2 nM

IC50 [12]: 108.4 nM
Compound: O=C(Nc1ccccc1C(=O)N/N=C/c1ccc(O)cc1O)c1ccco1

IC50 [13]: 5510 nM
IC50 [14]: 90 nM
Compound: O=C(/C=C/c1ccc(F)cc1)c1cc(Br)cc2cc(-c3ccccc3)oc12

IC50 [15]: 312 nM
IC50 [16]: 312 nM
IC50 [18]: 312 nM
IC50 [19]: 1600 nM
IC50 [20]: 3100 nM
IC50 [22]: 640 nM
Compound: CN1CCN(c2cc3c(cc2F)C(=O)C(/C=C2\CN(C4CC4)c4cc(N5CCNCC5)c(F)cc4C2=O)CN3C2CC2)CC1 (stereo not drawn)
IC50 [17]: 312 nM
IC50 [21]: 312 nM
IC50 [23]: 312 nM

IC50 [24]: 38.8 nM
IC50 [25]: 126 nM
IC50 [26]: 25.8 nM
Compound: Cc1ccc2c(=O)n(Cc3ccccc3)c(SCc3cn(-c4ccc(C(=O)O)cc4)nn3)nc2c1

IC50 [1]: 3000 nM
Compound: O=[N+]([O-])OCCCOc1ccc(Nc2ncnc3c2cnn3-c2ccc(Br)cc2)cc1

IC50 [27]: 6500 nM
IC50 [28]: 220 nM
Compound: COc1ccc(CNc2nc3ccccc3c(NCc3ccc(OC)cc3)c2[N+](=O)[O-])cc1

IC50 [29]: 150 nM
IC50 [30]: 21.2 nM
Compound: CCN1CCN(Cc2cc(Nc3ncc(C(=O)Nc4ccccc4N)s3)nc(C)n2)CC1

Compound: COc1ccc(S(=O)(=O)N2CCc3cccc(NC=O)c32)cc1
IC50 [31]: 390 nM
IC50 [32]: 410 nM
